Experiments:
[1] = test system: Tyrosine-protein kinase ABL1 (Homo sapiens), P00519 [F317I]; conditions: Compound concentration 1000.0 nM
[2] = target: Mitogen-activated protein kinase kinase kinase 5 (Homo sapiens) (UniProt Q99683); conditions: Compound concentration 1000.0 nM
[3] = target: Cyclin-dependent kinase 13 (Homo sapiens) (UniProt Q14004); conditions: Compound concentration 1000.0 nM
[4] = target: Casein kinase I isoform gamma-3 (Homo sapiens) (UniProt Q9Y6M4); conditions: Compound concentration 1000.0 nM
[5] = target: Discoidin domain-containing receptor 2 (Homo sapiens) (UniProt Q16832); conditions: Compound concentration 1000.0 nM
[6] = target: Myotonin-protein kinase (Homo sapiens) (UniProt Q09013); conditions: Compound concentration 1000.0 nM
[7] = test system: Epidermal growth factor receptor (Homo sapiens), P00533 [UNDEFINED MUTATION]; conditions: Compound concentration 1000.0 nM
[8] = target: Receptor tyrosine-protein kinase erbB-3 (Homo sapiens) (UniProt P21860); conditions: Compound concentration 1000.0 nM
[9] = target: Mitogen-activated protein kinase 15 (Homo sapiens) (UniProt Q8TD08); conditions: Compound concentration 1000.0 nM
[10] = target: Mast/stem cell growth factor receptor Kit (Homo sapiens) (UniProt P10721); conditions: Compound concentration 1000.0 nM
[11] = test system: Mast/stem cell growth factor receptor Kit (Homo sapiens), P10721 [A829P]; conditions: Compound concentration 1000.0 nM
[12] = target: Mitogen-activated protein kinase kinase kinase 4 (Homo sapiens) (UniProt Q9Y6R4); conditions: Compound concentration 1000.0 nM
[13] = test system: Hepatocyte growth factor receptor (Homo sapiens), P08581 [Y1235D]; conditions: Compound concentration 1000.0 nM
[14] = target: Serine/threonine-protein kinase Nek4 (Homo sapiens) (UniProt P51957); conditions: Compound concentration 1000.0 nM
[15] = target: Mitogen-activated protein kinase 14 (Homo sapiens) (UniProt Q16539); conditions: Compound concentration 1000.0 nM
[16] = target: 3-phosphoinositide-dependent protein kinase 1 (Homo sapiens) (UniProt O15530); conditions: Compound concentration 1000.0 nM
[17] = test system: Phosphatidylinositol 4,5-bisphosphate 3-kinase catalytic subunit alpha isoform (Homo sapiens), P42336 [H1047L]; conditions: Compound concentration 1000.0 nM
[18] = target: cAMP-dependent protein kinase catalytic subunit beta (Homo sapiens) (UniProt P22694); conditions: Compound concentration 1000.0 nM
[19] = target: Serine/threonine-protein kinase N2 (Homo sapiens) (UniProt Q16513); conditions: Compound concentration 1000.0 nM
[20] = target: Receptor-interacting serine/threonine-protein kinase 1 (Homo sapiens) (UniProt Q13546); conditions: Compound concentration 1000.0 nM
[21] = target: Ribosomal protein S6 kinase alpha-1 (Homo sapiens) (UniProt Q15418); conditions: Compound concentration 1000.0 nM
[22] = target: Serine/threonine-protein kinase SBK1 (Homo sapiens) (UniProt Q52WX2); conditions: Compound concentration 1000.0 nM
[23] = target: Serine/threonine-protein kinase Sgk2 (Homo sapiens) (UniProt Q9HBY8); conditions: Compound concentration 1000.0 nM
[24] = target: Serine/threonine-protein kinase TAO1 (Homo sapiens) (UniProt Q7L7X3); conditions: Compound concentration 1000.0 nM
[25] = target: Serine/threonine-protein kinase TAO3 (Homo sapiens) (UniProt Q9H2K8); conditions: Compound concentration 1000.0 nM
[26] = target: TRAF2 and NCK-interacting protein kinase (Homo sapiens) (UniProt Q9UKE5); conditions: Compound concentration 1000.0 nM
[27] = target: High affinity nerve growth factor receptor (Homo sapiens) (UniProt P04629); conditions: Compound concentration 1000.0 nM
[28] = target: 5-hydroxytryptamine receptor 1E (Homo sapiens) (UniProt P28566); conditions: Compound concentration 10.0 uM
[29] = target: Histamine H3 receptor (Homo sapiens) (UniProt Q9Y5N1); conditions: Compound concentration 10.0 uM
[30] = target: T1, Alpha-2A adrenergic receptor (Homo sapiens) (UniProt P08913); conditions: Compound concentration 10.0 uM
T1 sequence (whole entry): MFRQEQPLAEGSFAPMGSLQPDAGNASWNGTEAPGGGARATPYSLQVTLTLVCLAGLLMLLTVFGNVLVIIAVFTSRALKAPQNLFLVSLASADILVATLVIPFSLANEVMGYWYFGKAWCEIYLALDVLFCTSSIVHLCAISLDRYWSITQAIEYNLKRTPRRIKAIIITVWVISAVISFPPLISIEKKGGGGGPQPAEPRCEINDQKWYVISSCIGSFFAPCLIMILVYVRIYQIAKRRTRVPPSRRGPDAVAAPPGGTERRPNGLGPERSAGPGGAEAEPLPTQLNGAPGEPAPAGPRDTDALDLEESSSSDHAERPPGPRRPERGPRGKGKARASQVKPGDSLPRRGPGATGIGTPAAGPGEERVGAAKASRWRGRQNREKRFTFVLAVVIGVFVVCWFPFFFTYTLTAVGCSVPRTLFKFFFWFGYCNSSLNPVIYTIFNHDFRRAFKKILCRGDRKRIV

[31] = target: Adenosine receptor A1 (Homo sapiens) (UniProt P30542); assay: A1/HU Eurofins-Panlabs selectivity data (BI); conditions: Compound concentration 10.0 uM
[32] = target: B1 bradykinin receptor (Homo sapiens) (UniProt P46663); assay: B1/H Eurofins-Panlabs selectivity data (BI); conditions: Compound concentration 10.0 uM
[33] = target: Gamma-aminobutyric acid receptor subunit alpha-1 (Rattus norvegicus) (UniProt P62813); assay: GABAA MUSCIMOL CENT Eurofins-Panlabs selectivity data (BI); conditions: Compound concentration 10.0 uM
[34] = target: Gamma-aminobutyric acid receptor subunit alpha-1 (Rattus norvegicus) (UniProt P62813); assay: GABAACENTR Eurofins-Panlabs selectivity data (BI); conditions: Compound concentration 10.0 uM
[35] = target: Glutamate receptor ionotropic, kainate 1 (Rattus norvegicus) (UniProt P22756); assay: KAINATE/R Eurofins-Panlabs selectivity data (BI); conditions: Compound concentration 10.0 uM
[36] = target: Glutamate NMDA receptor (Rattus norvegicus) (UniProt P35439+Q00959+Q00960+Q00961+Q62645+Q8VHN2+Q9R1M7); assay: NMDAAGSI/RA Eurofins-Panlabs selectivity data (BI); format: protein-complex assay; conditions: filed as agonist, Compound concentration 10.0 uM
[37] = target: Protein kinase C alpha type (Mus musculus) (UniProt P20444); assay: PHORBOLE/M Eurofins-Panlabs selectivity data (BI); conditions: Compound concentration 10.0 uM
[38] = target: Neuropeptide Y receptor type 1 (Homo sapiens) (UniProt P25929); assay: Y1/HU Eurofins-Panlabs selectivity data (BI); conditions: Compound concentration 10.0 uM

Chain of Serine/threonine-protein kinase SBK1 (Homo sapiens) (Q52WX2 whole entry): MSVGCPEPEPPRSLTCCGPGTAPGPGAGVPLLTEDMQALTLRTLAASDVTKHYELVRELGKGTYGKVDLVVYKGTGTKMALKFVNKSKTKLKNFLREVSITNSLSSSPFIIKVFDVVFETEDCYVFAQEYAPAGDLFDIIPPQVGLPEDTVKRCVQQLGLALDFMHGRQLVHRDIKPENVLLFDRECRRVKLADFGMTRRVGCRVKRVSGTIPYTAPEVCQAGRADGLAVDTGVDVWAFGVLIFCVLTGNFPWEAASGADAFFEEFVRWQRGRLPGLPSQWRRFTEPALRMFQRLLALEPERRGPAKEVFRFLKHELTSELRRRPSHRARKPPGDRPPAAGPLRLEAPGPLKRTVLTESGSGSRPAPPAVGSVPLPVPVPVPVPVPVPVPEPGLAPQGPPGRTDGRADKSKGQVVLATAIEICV
Chain of Myotonin-protein kinase (Homo sapiens) (Q09013 whole entry): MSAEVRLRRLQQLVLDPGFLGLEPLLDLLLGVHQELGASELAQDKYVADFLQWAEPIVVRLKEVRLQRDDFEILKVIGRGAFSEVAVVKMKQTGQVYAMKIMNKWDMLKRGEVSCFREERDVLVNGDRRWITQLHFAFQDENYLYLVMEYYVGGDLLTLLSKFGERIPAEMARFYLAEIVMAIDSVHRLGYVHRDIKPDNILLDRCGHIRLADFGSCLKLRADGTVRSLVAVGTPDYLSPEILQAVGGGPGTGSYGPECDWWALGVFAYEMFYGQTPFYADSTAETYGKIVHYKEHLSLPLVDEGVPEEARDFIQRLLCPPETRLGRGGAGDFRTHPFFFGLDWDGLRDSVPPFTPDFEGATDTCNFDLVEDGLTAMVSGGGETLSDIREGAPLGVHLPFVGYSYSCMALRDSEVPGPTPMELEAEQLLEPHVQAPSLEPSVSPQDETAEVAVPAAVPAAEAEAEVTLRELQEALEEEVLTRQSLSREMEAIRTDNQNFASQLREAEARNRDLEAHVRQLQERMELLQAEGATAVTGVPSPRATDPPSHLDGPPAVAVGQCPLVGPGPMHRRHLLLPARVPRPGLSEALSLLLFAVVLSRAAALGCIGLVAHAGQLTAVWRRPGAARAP
Chain of Cyclin-dependent kinase 13 (Homo sapiens) (Q14004 whole entry, looked up, canonical isoform): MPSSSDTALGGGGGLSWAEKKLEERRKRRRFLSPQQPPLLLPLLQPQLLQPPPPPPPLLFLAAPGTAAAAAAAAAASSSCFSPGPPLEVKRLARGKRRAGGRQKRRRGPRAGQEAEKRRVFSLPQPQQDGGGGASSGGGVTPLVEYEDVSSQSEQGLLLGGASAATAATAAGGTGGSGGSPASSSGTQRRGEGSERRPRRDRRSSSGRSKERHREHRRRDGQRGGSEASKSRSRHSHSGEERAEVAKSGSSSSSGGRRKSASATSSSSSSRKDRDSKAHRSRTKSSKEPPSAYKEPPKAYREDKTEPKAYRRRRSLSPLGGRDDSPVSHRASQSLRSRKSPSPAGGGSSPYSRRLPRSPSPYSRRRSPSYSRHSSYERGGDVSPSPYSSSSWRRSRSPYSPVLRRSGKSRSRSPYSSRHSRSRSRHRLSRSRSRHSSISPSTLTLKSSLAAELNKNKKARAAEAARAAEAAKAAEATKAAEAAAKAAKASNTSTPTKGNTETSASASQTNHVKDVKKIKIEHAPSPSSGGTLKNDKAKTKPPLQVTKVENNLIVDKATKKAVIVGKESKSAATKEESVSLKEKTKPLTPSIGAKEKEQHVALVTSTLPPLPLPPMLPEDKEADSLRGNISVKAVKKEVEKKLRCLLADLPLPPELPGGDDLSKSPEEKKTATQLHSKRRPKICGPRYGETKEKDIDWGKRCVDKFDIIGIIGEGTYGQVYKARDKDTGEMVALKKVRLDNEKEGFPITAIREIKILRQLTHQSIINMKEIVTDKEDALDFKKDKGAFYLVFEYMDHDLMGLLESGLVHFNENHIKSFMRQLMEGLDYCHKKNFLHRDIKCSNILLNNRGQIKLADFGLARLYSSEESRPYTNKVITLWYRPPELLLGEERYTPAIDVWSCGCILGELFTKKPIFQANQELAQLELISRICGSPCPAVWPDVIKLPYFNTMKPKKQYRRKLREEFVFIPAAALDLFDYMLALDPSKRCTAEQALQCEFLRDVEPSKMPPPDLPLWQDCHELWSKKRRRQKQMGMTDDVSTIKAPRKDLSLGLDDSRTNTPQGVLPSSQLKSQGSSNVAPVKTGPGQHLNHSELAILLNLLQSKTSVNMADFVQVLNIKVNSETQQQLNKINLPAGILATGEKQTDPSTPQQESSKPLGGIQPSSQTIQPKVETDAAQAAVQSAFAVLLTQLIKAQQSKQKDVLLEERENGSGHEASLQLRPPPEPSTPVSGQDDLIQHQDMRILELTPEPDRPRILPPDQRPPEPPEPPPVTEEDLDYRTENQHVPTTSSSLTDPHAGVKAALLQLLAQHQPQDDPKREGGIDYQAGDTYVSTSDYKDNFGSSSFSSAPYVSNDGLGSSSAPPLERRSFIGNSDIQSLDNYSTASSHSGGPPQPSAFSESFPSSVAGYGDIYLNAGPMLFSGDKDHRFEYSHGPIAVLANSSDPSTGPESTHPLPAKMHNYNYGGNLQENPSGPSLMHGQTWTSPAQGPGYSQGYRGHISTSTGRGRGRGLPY
Chain of Epidermal growth factor receptor (Homo sapiens), P00533 [UNDEFINED MUTATION] (P00533 whole entry, looked up, change not shown): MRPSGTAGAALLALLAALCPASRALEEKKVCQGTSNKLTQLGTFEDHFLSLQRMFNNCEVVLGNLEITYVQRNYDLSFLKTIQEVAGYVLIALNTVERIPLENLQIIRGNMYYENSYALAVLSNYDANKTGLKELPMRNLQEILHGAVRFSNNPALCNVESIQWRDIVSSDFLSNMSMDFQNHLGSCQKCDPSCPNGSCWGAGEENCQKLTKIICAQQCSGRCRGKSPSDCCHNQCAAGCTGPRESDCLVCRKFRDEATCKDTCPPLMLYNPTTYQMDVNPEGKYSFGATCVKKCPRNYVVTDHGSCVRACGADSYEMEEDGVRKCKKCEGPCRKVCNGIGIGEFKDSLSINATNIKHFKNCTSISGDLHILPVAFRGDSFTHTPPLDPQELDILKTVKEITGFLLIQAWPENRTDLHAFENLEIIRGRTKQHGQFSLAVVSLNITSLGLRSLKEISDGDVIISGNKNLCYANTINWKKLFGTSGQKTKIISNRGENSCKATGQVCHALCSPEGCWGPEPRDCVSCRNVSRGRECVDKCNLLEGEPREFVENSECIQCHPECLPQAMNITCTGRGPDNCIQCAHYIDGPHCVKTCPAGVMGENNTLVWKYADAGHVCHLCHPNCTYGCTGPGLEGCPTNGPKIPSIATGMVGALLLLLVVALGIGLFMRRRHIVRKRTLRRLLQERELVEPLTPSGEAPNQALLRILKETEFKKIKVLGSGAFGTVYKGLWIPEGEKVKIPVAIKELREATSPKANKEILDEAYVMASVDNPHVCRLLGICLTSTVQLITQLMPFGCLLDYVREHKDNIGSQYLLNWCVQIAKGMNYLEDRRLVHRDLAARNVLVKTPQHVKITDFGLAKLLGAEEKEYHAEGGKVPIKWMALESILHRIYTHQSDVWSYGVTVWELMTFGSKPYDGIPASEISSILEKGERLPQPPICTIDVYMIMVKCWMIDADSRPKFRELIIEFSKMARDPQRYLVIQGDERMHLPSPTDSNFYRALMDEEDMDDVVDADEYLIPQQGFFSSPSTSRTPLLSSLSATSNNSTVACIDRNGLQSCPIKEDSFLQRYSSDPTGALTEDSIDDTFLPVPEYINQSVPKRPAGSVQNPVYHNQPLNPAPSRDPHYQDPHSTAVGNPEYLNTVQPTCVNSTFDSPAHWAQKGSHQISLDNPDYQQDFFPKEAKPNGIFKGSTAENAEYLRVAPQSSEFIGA
Chain of Serine/threonine-protein kinase N2 (Homo sapiens) (Q16513 whole entry, looked up): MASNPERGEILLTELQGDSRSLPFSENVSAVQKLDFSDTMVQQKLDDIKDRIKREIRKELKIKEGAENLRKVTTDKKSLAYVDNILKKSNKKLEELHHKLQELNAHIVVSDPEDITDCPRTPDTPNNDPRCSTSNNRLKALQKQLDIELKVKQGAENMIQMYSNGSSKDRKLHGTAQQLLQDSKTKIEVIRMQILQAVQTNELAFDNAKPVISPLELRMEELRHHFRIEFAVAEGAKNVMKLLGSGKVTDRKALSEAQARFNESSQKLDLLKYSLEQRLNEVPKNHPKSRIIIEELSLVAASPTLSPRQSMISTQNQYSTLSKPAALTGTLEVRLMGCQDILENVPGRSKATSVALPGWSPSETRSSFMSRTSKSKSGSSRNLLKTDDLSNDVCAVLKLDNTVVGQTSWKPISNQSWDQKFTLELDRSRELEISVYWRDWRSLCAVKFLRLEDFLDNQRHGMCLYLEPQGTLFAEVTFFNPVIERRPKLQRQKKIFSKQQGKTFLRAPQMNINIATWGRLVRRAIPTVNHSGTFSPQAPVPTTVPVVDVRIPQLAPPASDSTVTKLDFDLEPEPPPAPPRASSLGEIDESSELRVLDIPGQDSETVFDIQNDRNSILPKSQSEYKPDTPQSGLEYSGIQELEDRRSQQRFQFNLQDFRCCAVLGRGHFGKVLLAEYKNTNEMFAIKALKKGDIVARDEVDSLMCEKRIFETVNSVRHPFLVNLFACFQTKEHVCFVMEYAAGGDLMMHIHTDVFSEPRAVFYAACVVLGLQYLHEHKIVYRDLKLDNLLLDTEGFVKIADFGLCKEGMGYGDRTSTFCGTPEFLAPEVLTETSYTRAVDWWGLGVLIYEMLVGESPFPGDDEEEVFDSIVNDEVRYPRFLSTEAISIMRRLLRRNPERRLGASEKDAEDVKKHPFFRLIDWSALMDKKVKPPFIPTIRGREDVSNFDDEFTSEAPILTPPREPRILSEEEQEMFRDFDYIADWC
Chain of Adenosine receptor A1 (Homo sapiens) (P30542 whole entry): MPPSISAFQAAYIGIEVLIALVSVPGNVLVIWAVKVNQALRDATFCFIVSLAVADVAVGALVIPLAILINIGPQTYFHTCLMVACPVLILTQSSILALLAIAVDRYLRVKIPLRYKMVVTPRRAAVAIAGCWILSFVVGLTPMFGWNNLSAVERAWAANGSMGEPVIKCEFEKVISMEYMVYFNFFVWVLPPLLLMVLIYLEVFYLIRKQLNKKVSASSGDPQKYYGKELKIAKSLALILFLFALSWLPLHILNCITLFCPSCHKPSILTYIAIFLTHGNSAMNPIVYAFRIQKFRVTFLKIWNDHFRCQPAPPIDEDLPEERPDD

CS(=O)(=O)NCC[C@H](NC(=O)c1cncc2c1cnn2-c1ccc(F)cc1)c1ccnc(S(C)(=O)=O)c1 [BI 9307]
inactive: residual activity [1] 85% | residual activity [2] 96% | residual activity [3] 100% | residual activity [4] 96% | residual activity [5] 100% | residual activity [6] 100% | residual activity [7] 92% | residual activity [8] 100% | residual activity [9] 100% | residual activity [10] 100% | residual activity [11] 83% | residual activity [12] 84% | residual activity [13] 93% | residual activity [14] 100% | residual activity [15] 100% | residual activity [16] 100% | residual activity [17] 77% | residual activity [18] 100% | residual activity [19] 100% | residual activity [20] 99% | residual activity [21] 100% | residual activity [22] 96% | residual activity [23] 94% | residual activity [24] 82% | residual activity [25] 80% | residual activity [26] 100% | residual activity [27] 97% | inhibition [28] 8.79% | inhibition [29] 18.9% | inhibition [30] 3.49%

CS(=O)(=O)c1cc(C2(NC(=O)c3cncc4c3cnn4-c3ccc(F)cc3)CC2)ccn1 [BI 639667]
inactive: residual activity [31] 82% | residual activity [32] 99% | residual activity [33] 98% | residual activity [34] 104% | residual activity [35] 91% | residual activity [36] 86% | residual activity [37] 93% | residual activity [38] 101% | residual activity [1] 98% | residual activity [2] 97% | residual activity [3] 100% | residual activity [4] 100% | residual activity [5] 100% | residual activity [6] 99% | residual activity [7] 100% | residual activity [8] 100% | residual activity [9] 100% | residual activity [10] 96% | residual activity [11] 100% | residual activity [12] 87% | residual activity [13] 91% | residual activity [14] 100% | residual activity [15] 100% | residual activity [16] 100% | residual activity [17] 100% | residual activity [18] 100% | residual activity [19] 100% | residual activity [20] 100% | residual activity [21] 77% | residual activity [22] 95% | residual activity [23] 67% | residual activity [24] 94% | residual activity [25] 97% | residual activity [26] 95% | residual activity [27] 96% | inhibition [28] 14.8% | inhibition [29] 29.6% | inhibition [30] -2.44%
